Measured values: US9505728B2, “Triazolone compounds and uses thereof” (INCEPTION 2, INC., priority 2012, dated 2016)

Molecular target: T1, Human PPARα (Homo sapiens, UniProt Q07869)
T1 construct: host or cells: proprietary non-human mammalian cells
T1 sequence (Q07869 1-468): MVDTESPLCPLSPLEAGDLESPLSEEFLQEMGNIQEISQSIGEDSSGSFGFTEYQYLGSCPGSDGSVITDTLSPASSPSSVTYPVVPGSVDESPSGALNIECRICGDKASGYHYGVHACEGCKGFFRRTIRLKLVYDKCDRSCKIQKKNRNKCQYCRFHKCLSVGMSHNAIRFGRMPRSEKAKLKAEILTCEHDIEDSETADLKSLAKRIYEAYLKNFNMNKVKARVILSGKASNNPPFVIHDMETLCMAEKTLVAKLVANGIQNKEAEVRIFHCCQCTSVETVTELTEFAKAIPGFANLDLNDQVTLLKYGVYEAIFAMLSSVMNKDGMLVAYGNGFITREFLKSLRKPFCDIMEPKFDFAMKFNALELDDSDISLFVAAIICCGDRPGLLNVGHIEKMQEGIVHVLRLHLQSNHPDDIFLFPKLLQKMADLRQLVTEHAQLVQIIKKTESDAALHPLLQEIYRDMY
Experiment: Human PPARα Reporter Assay (luciferase)
Assay type: cell-based
Details: human PPARα reporter cells, overnight incubation, antagonism; read-out: Luciferase IC50
Method: Human PPARα Reporter Assay
The screening of test compounds for agonist or antagonist activities against human PPARα receptors was performed using a commercial kit, Human PPARα Reporter Assay System (Indigo Biosciences, Cat. #IB00111).
This nuclear receptor assay system utilizes proprietary non-human mammalian cells engineered to provide constitutive, high-level expression of Human PPARα. Because these cells incorporate a PPARα-responsive luciferase reporter gene, quantifying expressed luciferase activity provides a sensitive surrogate measure of PPARα activity in the treated cells. The primary application of this reporter assay system is in the screening of test samples to quantify any functional activity, either agonist or antagonist, that they may exert against human PPARα.
Briefly, reporter cells are dispensed into wells of the assay plate and then immediately dosed with test compounds. Following an overnight incubation, the treatment media is discarded and Luciferase Detection Reagent (LDR) is added. The intensity of light emission from the ensuing luciferase reaction provides a sensitive measure that is directly proportional to the relative level of PPARα activation in the reporter cells.

IC50 [nM] | SMILES
683 | CCn1c(CCCc2ccc(-c3cccc(NS(=O)(=O)N(C)C)c3)cc2)nn(Cc2ccc(C(C)(C)C)cc2)c1=O [Example 107, 3-{3-[4-(3-{[(Dimethylamino)sulfonyl]amino}phenyl)phenyl]propyl}-1-{[4-(tert-butyl)phenyl]methyl}-4-ethyl-1,2,4-triazolin-5-one]
268 | CCn1c(CCCc2ccc(-c3cccc(C4(C(=O)O)CC4)c3)cc2)nn(Cc2ccc(C(C)(C)C)cc2)c1=O [Example 13, 1-(4′-(3-(1-(4-(tert-Butyl)benzyl)-4-ethyl-5-oxo-4,5-dihydro-1H-1,2,4-triazol-3-yl)propyl)-[1,1′-biphenyl]-3-yl)cyclopropanecarboxylic acid]
15 | CCn1c(CCC(F)(F)c2ccc(-c3ccc(OC)c(CC(=O)O)c3)cc2)nn(Cc2ccc(C(C)(C)C)cc2)c1=O [Example 163, 2-(4′-(3-(1-(4-(tert-Butyl)benzyl)-4-ethyl-5-oxo-4,5-dihydro-1H-1,2,4-triazol-3-yl)-1,1-difluoropropyl)-4-methoxy-[1,1′-biphenyl]-3-yl)acetic acid]
161 | CCn1c(CCCc2ccc(-c3ccc(C)c(N)c3)cc2)nn(Cc2ccc(C(C)(C)C)cc2)c1=O [Example 149, 3-(3-(3′-Amino-4′-methyl-[1,1′-biphenyl]-4-yl)propyl)-1-(4-(tert-butyl)benzyl)-4-ethyl-1H-1,2,4-triazol-5(4H)-one]
630 | CCn1c(CCCc2ccc(-c3cnc(OC)c(C(=O)O)n3)cc2)nn(Cc2ccc(C(C)(C)C)cc2)c1=O [Example 162, 6-(4-(3-(1-(4-(tert-Butyl)benzyl)-4-ethyl-5-oxo-4,5-dihydro-1H-1,2,4-triazol-3-yl)propyl)phenyl)-3-methoxypyrazine-2-carboxylic acid]
419 | CCn1c(CCCc2ccc(-c3cccc(CNS(=O)(=O)c4ccccc4)c3)cc2)nn(Cc2ccc(C(C)(C)C)cc2)c1=O [Example 177, 1-{[4-(tert-Butyl)phenyl]methyl}-4-ethyl-3-{3-[4-(3-{[(phenylsulfonyl)amino]methyl}phenyl)phenyl]propyl}-1,2,4-triazolin-5-one]
250 | COc1ccc(-c2ccc(CCCc3nn(Cc4ccc(C(C)(C)C)cc4)c(=O)n3CC(F)(F)F)cc2)cc1CC(=O)O [Example 55, 2-(4′-(3-(1-(4-(tert-Butyl)benzyl)-5-oxo-4-(2,2,2-trifluoroethyl)-4,5-dihydro-1H-1,2,4-triazol-3-yl)propyl)-4-methoxy-[1,1′-biphenyl]-3-yl)acetic acid]
261 | C=CCn1c(CCCc2ccc(-c3ccc(OC)c(CC(=O)O)c3)cc2)nn(Cc2ccc(C(C)(C)C)cc2)c1=O [Example 76, 2-(4′-(3-(4-Allyl-1-(4-(tert-butyl)benzyl)-5-oxo-4,5-dihydro-1H-1,2,4-triazol-3-yl)propyl)-4-methoxy-[1,1′-biphenyl]-3-yl)acetic acid]
51 | CCn1c(CCCc2ccc(-c3cnc(C4(F)COC4)s3)cc2)nn(Cc2ccc(C(C)(C)C)cc2)c1=O [Example 202, 1-(4-(tert-Butyl)benzyl)-4-ethyl-3-(3-(4-(2-(3-fluorooxetan-3-yl)thiazol-5-yl)phenyl)propyl)-1H-1,2,4-triazol-5(4H)-one]
1120 | CCn1c(CCCc2ccc(-c3cccc(C4CC4C(=O)O)c3)cc2)nn(Cc2ccc(C(C)(C)C)cc2)c1=O (stereo not shown) [Example 35, 2-(4′-(3-(1-(4-(tert-Butyl)benzyl)-4-ethyl-5-oxo-4,5-dihydro-1H-1,2,4-triazol-3-yl)propyl)-[1,1′-biphenyl]-3-yl)cyclopropanecarboxylic acid]
2170 | CCn1c(COCc2ccc(-c3cccc(CC(=O)O)c3)cc2)nn(Cc2ccc(C(C)(C)C)cc2)c1=O [Example 27, 2-(4′(((1-(4-(tert-Butyl)benzyl)-4-ethyl-5-oxo-4,5-dihydro-1H-1,2,4-triazol-3-yl)methoxy)methyl)-[1,1′-biphenyl]-3-yl)acetic acid]
947 | CCn1c(CCCc2ccc(-c3cccc(NC(=O)Nc4ccccc4)n3)cc2)nn(Cc2ccc(C(C)(C)C)cc2)c1=O [Example 153, 1-(6-(4-(3-(1-(4-(tert-Butyl)benzyl)-4-ethyl-5-oxo-4,5-dihydro-1H-1,2,4-triazol-3-yl)propyl)phenyl)pyridin-2-yl)-3-phenylurea]
363 | CCn1c(CCCc2ccc(-c3cccc(C(=O)NS(=O)(=O)c4ccccc4)c3)cc2)nn(Cc2ccc(C(C)(C)C)cc2)c1=O [Example 9, 4′-(3-(1-(4-(tert-Butyl)benzyl)-4-ethyl-5-oxo-4,5-dihydro-1H-1,2,4-triazol-3-yl)propyl)-N-(phenylsulfonyl)-[1,1′-biphenyl]-3-carboxamide]
40 | CCn1c(CCCc2ccc(-c3cccc(NS(=O)(=O)c4ccccc4)n3)cc2)nn(Cc2ccc(C(C)(C)C)cc2)c1=O [Example 4, N-(6-(4-(3-(1-(4-(tert-Butyl)benzyl)-4-ethyl-5-oxo-4,5-dihydro-1H-1,2,4-triazol-3-yl)propyl)phenyl)pyridin-2-yl)benzenesulfonamide]
987 | CCC(=O)NS(=O)(=O)Cc1cccc(-c2ccc(CCCc3nn(Cc4ccc(C(C)(C)C)cc4)c(=O)n3CC)cc2)c1 [Example 116, N-(((4′-(3-(1-(4-(tert-Butyl)benzyl)-4-ethyl-5-oxo-4,5-dihydro-1H-1,2,4-triazol-3-yl)propyl)-[1,1′-biphenyl]-3-yl)methyl)sulfonyl)propionamide]
396 | CCn1c(CCCc2ccc(-c3cc(C(=O)O)c(OC)cn3)cc2)nn(Cc2ccc(C(C)(C)C)cc2)c1=O [Example 140, 2-(4-(3-(1-(4-(tert-Butyl)benzyl)-4-ethyl-5-oxo-4,5-dihydro-1H-1,2,4-triazol-3-yl)propyl)phenyl)-5-methoxyisonicotinic acid]
579 | CCn1c(CCCc2ccc(-c3cccc(CC(=O)O)c3)cc2)nn(Cc2ccc(C(F)(F)F)cc2)c1=O [Example 24, 2-(4′-(3-(4-Ethyl-5-oxo-1-(4-(trifluoromethyl)benzyl)-4,5-dihydro-1H-1,2,4-triazol-3-yl)propyl)-[1,1′-biphenyl]-3-yl)acetic acid]
181 | CCn1c(CCCc2ccc(-c3cccc(NS(=O)(=O)c4ccc(C(F)(F)F)cc4)n3)cc2)nn(Cc2ccc(C(C)(C)C)cc2)c1=O [Example 82, 1-{[4-(tert-Butyl)phenyl]methyl}-4-ethyl-3-(3-{4-[6-({[4-(trifluoromethyl)phenyl]sulfonyl}amino)(2-pyridyl)]phenyl}propyl)-1,2,4-triazolin-5-one]
208 | CCCc1ccc(S(=O)(=O)Nc2cccc(-c3ccc(CCCc4nn(Cc5ccc(C(C)(C)C)cc5)c(=O)n4CC)cc3)n2)cc1 [Example 72, 1-{[4-(tert-Butyl)phenyl]methyl}-4-ethyl-3-{3-[4-(6-{[(4-propylphenyl)sulfonyl]amino}(2-pyridyl))phenyl]propyl}-1,2,4-triazolin-5-one]
2990 | CC(C)(C)c1ccc(Cn2nc(CCCc3ccc(-c4cccc(CC(=O)O)c4)cc3)n(-c3ccccc3)c2=O)cc1 [Example 32, 2-(4′-(3-(1-(4-(tert-Butyl)benzyl)-5-oxo-4-phenyl-4,5-dihydro-1H-1,2,4-triazol-3-yl)propyl)-[1,1′-biphenyl]-3-yl)acetic acid]
62 | CCn1c(CCCc2ccc(-c3cccc(NS(=O)(=O)c4ccc(-c5ccc(C)cc5)cc4)n3)cc2)nn(Cc2ccc(C(C)(C)C)cc2)c1=O [Example 73, 1-{[4-(tert-Butyl)phenyl]methyl}-4-ethyl-3-(3-{4-[6-({[4-(4-methylphenyl)phenyl]sulfonyl}amino)(2-pyridyl)]phenyl}propyl)-1,2,4-triazolin-5-one]
640 | CCn1c(CCCc2ccc(-c3ccc(OC)c(CNC)c3)cc2)nn(Cc2ccc(C(C)(C)C)cc2)c1=O [Example 180, 1-{[4-(tert-Butyl)phenyl]methyl}-4-ethyl-3-[3-(4-{4-methoxy-3-[(methylamino)methyl]phenyl}phenyl)propyl]-1,2,4-triazolin-5-one]
534 | CCn1c(CCCc2ccc(-c3ccc(OC)c(CN)c3)cc2)nn(Cc2ccc(C(C)(C)C)cc2)c1=O [Example 184, 3-(3-{4-[3-(Aminomethyl)-4-methoxyphenyl]phenyl}propyl)-1-{[4-(tert-butyl)phenyl]methyl}-4-ethyl-1,2,4-triazolin-5-one]
63 | CCOc1ccc(-c2ccc(CCCc3nn(Cc4ccc(C(C)(C)C)cc4)c(=O)n3CC)cc2)nc1N [Example 60, 3-{3-[4-(6-Amino-5-ethoxy(2-pyridyl))phenyl]propyl}-1-{[4-(tert-butyl)phenyl]methyl}-4-ethyl-1,2,4-triazolin-5-one]
429 | CCn1c(CCCc2ccc(-c3ccc(NC(=O)NS(=O)(=O)c4ccccc4)cn3)cc2)nn(Cc2ccc(C(C)(C)C)cc2)c1=O [Example 160, N-((6-(4-(3-(1-(4-(tert-Butyl)benzyl)-4-ethyl-5-oxo-4,5-dihydro-1H-1,2,4-triazol-3-yl)propyl)phenyl)pyridin-3-yl)carbamoyl)benzenesulfonamide]
